Laboratory results as given in patent US20240141374A1, “ON DEMAND EXPRESSION OF EXOGENOUS FACTORS IN LYMPHOCYTES” (priority 0001, published 2024).

B1: 3BNC117: human IgG1 monoclonal antibody targeting the CD4 binding site on HIV gp160; expressed in cells from vector AGT112 (protein)
chain 1: MYRMQLLSCIALSLALVTQVQLLQSGAAVTKPGASVRVSCEASGYNIRDYFIHWWRQAPGQGLQWVGWINPKTGQPNNPRQFQGRVSLTRHASWDFDTFSFYMDLKALRSDDTAVYFCARQRSDYWDFDVWGSGTQVTVSSASTKGP
chain 2: MYRMQLLSCIALSLALVTDIQMTQSPSSLSASVGDTVTITCQANGYLNWYQQRRGKAPKLLIYDGSKLERGVPSRFSGRRWGQEYNLTINNLQPEDIATYFCQVYEFVVPGTRLDLKRTVAAP
modifications: constant regions lack entries; misc_feature 1..441 3BNC117 Heavy Variable Chain (with IL-2 secretory signal); misc_feature 1..369 3BNC117 Light Variable Chain (with IL-2 secretory signal)
notes: expressed in cells from vector AGT112
B2: AGT103: Vector encoding inhibitory RNA sequences targeting CCR5 and HIV Vif/Tat with EF-1α promoter (SEQ ID NO: 78) (nucleic acid)
DNA: CCGGTGCCTAGAGAAGGTGGCGCGGGGTAAACTGGGAAAGTGATGTCGTGTACTGGCTCCGCCTTTTTCCCGAGGGTGGGGGAGAACCGTATATAAGTGCAGTAGTCGCCGTGAACGTTCTTTTTCGCAACGGGTTTGCCGCCAGAACACAGGTAAGTGCCGTGTGTGGTTCCCGCGGGCCTGGCCTCTTTACGGGTTATGGCCCTTGCGTGCCTTGAATTACTTCCACGCCCCTGGCTGCAGTACGTGATTCTTGATCCCGAGCTTCGGGTTGGAAGTGGGTGGGAGAGTTCGAGGCCTTGCGCTTAAGGAGCCCCTTCGCCTCGTGCTTGAGTTGAGGCCTGGCCTGGGCGCTGGGGCCGCCGCGTGCGAATCTGGTGGCACCTTCGCGCCTGTCTCGCTGCTTTCGATAAGTCTCTAGCCATTTAAAATTTTTGATGACCTGCTGCGACGCTTTTTTTCTGGCAAGATAGTCTTGTAAATGCGGGCCAAGATCTGCACACTGGTATTTCGGTTTTTGGGGCCGCGGGCGGCGACGGGGCCCGTGCGTCCCAGCGCACATGTTCGGCGAGGCGGGGCCTGCGAGCGCGGCCACCGAGAATCGGACGGGGGTAGTCTCAAGCTGGCCGGCCTGCTCTGGTGCCTGGCCTCGCGCCGCCGTGTATCGCCCCGCCCTGGGCGGCAAGGCTGGCCCGGTCGGCACCAGTTGCGTGAGCGGAAAGATGGCCGCTTCCCGGCCCTGCTGCAGGGAGCTCAAAATGGAGGACGCGGCGCTCGGGAGAGCGGGCGGGTGAGTCACCCACACAAAGGAAAAGGGCCTTTCCGTCCTCAGCCGTCGCTTCATGTGACTCCACGGAGTACCGGGCGCCGTCCAGGCACCTCGATTAGTTCTCGAGCTTTTGGAGTACGTCGTCTTTAGGTTGGGGGGAGGGGTTTTATGCGATGGAGTTTCCCCACACTGAGTGGGTGGAGACTGAAGTTAGGCCAGCTTGGCACTTGATGTAATTCTCCTTGGAATTTGCCCTTTTTGAGTTTGGATCTTGGTTCATTCTCAAGCCTCAGACAGTGGTTCAAAGTTTTTTTCTTCCATTTCAGGTGTCGTGATGTACAAGGTATATTGCTGTTGACAGTGAGCGACTGTAAACTGAGCTTGCTCTACTGTGAAGCCACAGATGGGTAGAGCAAGCACAGTTTACCGCTGCCTACTGCCTCGGACTTCAAGGGGCTTCCCGGGCATCTCCATGGCTGTACCACCTTGTCGGGGGATGTGTACTTCTGAACTTGTGTTGAATCTCATGGAGTTCAGAAGAACACATCCGCACTGACATTTTGGTATCTTTCATCTGACCAGCTAGCGGGCCTGGCTCGAGCAGGGGGCGAGGGATTCCGCTTCTTCCTGCCATAGCGTGGTCCCCTCCCCTATGGCAGGCAGAAGCGGCACCTTCCCTCCCAATGACCGCGTCTTCGTC
modifications: misc_feature 1..1469 AGT103

Tests used:
HIV NL43-GFP [1] = test: HIV NL43-GFP infection of CD8-depleted, CD3/CD28-stimulated PBMC transduced with lentiviral vector encoding 3BNC117 (Example 3); assay type: cell-based; conditions: day six, FIG. 6
Description: Method: On day 0, PBMC were depleted of CD8+ T cells and then stimulated with TransAct (CD3/CD28 beads) (MiltenyiBiotec). On day 1, the PBMC were transduced with a lentiviral vectors expressing the broadly neutralizing antibody (bNAb) against HIV (SEQ ID NO:4; AGT112). The components of the vectors are described in Table 2. The AGT112 vector (SEQ ID NO: 4) contains a CMV promoter (SEQ ID NO: 13) that drives expression of a 3BNC117 antibody sequence that contains an IL-2 secretory sequence (SEQ ID NO: 74 (3BNC117 heavy variable chain (with IL-2 secretory sequence)) and SEQ ID NO: 75 (3BNC117 light variable chain (with IL-2 secretory sequence)). The IL-2 secretory sequence is SEQ ID NO: 11.
On day two (2), the PBMC were then infected with HIV NL43-GFP. On day three, cells were washed three times. On day six, HIV-infected GFP positive cells were measured. This protocol is shown in FIG. 5 but here LV-3BNC117 was substituted for LV-VRC01.

[2] = test system: HIV recombinant strain NL43 that expresses GFP; test: HIV NL43-GFP infection of primary CD4 T cells transduced with AGT111 at various MOI (Example 7); assay type: cell-based; conditions: 200 nM saquinavir
Procedure: Method: CD4 T cells were separated by negative selection and stimulated for 1 day with TransAct (CD3/CD28 beads) (Miltenyi Biotec) plus IL-2 (30 U/mL) (Thermo Fisher Scientific) and then transduced with lentivirus vector AGT111 (SEQ ID NO: 2) at various MOI.
One day later, cells were infected with 1 MOI of HIV recombinant strain NL43 that expresses GFP. […] As a control, HIV infected cells were treated with 200 nM saquinavir. At the end of the culture, cells were collected and analyzed by flow cytometry for GFP expression and with an APC anti-CD4 antibody. If the CD4 cell expresses GFP, it was infected by HIV.

HIV NL43-GFP [3] = test: HIV NL43-GFP infection of PBMC transduced with sCD4 lentiviral vectors (Example 4); assay type: cell-based; conditions: columns NL43+sCD4 / NL43-sCD4-Ig / NL43-Saquinavir
Description: Method: On day 0, PBMC were depleted of CD8+ T cell and then stimulated with TransAct (CD3/CD28 beads) (MiltenyiBiotec). On day 1, PBMC were transduced with lentiviral vectors expressing sCD4 (SEQ ID NO: 8 (AGT116) and SEQ ID NO: 10 (AGT117)).
The components of the vectors are described in Table 2. The AGT116 vector (SEQ ID NO: 8) contains a sCD4 sequence (SEQ ID NO: 7) and an EF-1α promoter (SEQ ID NO: 14) upstream of the sCD4 sequence. The AGT117 vector (SEQ ID NO: 10) contains a sCD4-IgG1 Fc sequence (SEQ ID NO: 9) and an EF-1α promoter (SEQ ID NO: 14) upstream of the sCD4-IgG1 Fc sequence.
On day 2, the PBMC were infected with HIV NL43-GFP. On day 3, the cells were washed three times. Cells were then […]. On day 6, HIV-infected GFP positive cells were measured.

[4] = test system: HIV Gag-specific CD4 T cells; test: Antibody (IgG Fc) expression by HIV Gag-specific CD4 T cells after peptide stimulation (Example 5); assay type: cell-based, human; conditions: for cells positive for IgG Fc: MOI 5
Procedure: Method: To measure antibody expression by HIV Gag-specific CD4 T cells, HIV positive human peripheral blood mononuclear cells (PBMCs) were separated with Ficoll-Paque PLUS (GE Healthcare, Cat: 17-1440-02). Separated PBMCs (1×10^7) were stimulated with PepMix™ HIV (GAG) Ultra (Cat: PM-HIV-GAG, JPT Peptide Technologies) in 1 mL medium in a 24-well plate for 18 hours. CD8 T, γδ, NK, and B cells were depleted with PE labeled specific antibodies and anti-PE microbeads. The negatively selected cells were cultured at 2×10^6/mL in TexMACS GMP medium (Cat: 170-076-309, Miltenyi Biotec) containing IL7 (170-076-111, Miltenyi Biotec), IL15 (170-076-114, Miltenyi Biotec) and saquinavir (Cat: 4658, NIH AIDS Reagent Program). The lentivirus vector AGT111 (SEQ ID NO: 2) encoding anti-HIV antibody VRC01 or AGT112 (SEQ ID NO: 4) encoding anti-HIV antibody 3BNC117 was added 24 hours later at a multiplicity of infection (MOI) of 5.
Fresh medium containing IL7, IL15, and saquinavir was added every 2-3 days during cell expansion. The starting concentration of IL7 and IL15 was 10 ng/mL. On day 12-16, 2-3×10^6 cells were collected for peptide stimulation. The intracellular expression of IFNγ and IgG Fc was detected with a PE anti-IFNγ antibody and an APC anti-IgG1 Fc antibody (Biolegend).

[5] = test system: HIV recombinant strain NL43 that expresses GFP; test: HIV NL43-GFP infection of primary CD4 T cells transduced with AGT103 or AGT118 (Example 17); assay type: cell-based
Description: Method: CD4 T cells were separated by negative selection and stimulated for 1 day with TransAct (CD3/CD28 beads) (Miltenyi Biotec) plus IL-2 (30 U/mL) (Thermo Fisher Scientific) and then transduced with lentivirus AGT103 (SEQ ID NO: 78) or AGT118 (SEQ ID NO: 80) at a MOI of 5. The AGT103 vector (SEQ ID NO: 78) contains an EF-1α promoter (SEQ ID NO: 14) that drives expression of the miR30-CCR5/miR21-Vif/mir185-Tat microRNA cluster sequence (SEQ ID NO: 65) (miR30-CCR5/miR21-Vif/miR185-Tat microRNA cluster sequence). The miR30-CCR5 sequence is SEQ ID NO: 62. The miR21-Vif sequence is SEQ ID NO: 63. The miR185-Tat sequence is SEQ ID NO: 64. The AGT118 vector (SEQ ID NO: 80) contains an EF-1α promoter (SEQ ID NO: 14) that drives expression of sCD4(D1+D2)-IgG1 Fc (SEQ ID NO: 9) and the miR30-CCR5/miR21-Vif/miR185-Tat microRNA cluster sequence (SEQ ID NO: 65).
One day later, cells were infected with 1 MOI of HIV recombinant strain NL43 that expresses GFP. After 24 hours, CD3/CD28 beads, lentivirus and HIV were removed by washing 3 times with PBS and cultured in RPMI 1640 medium (Thermo Fisher Scientific) containing 10% FBS (Gemini Bio) and 1% Pen-Strep (Thermo Fisher Scientific) with IL-2 (30 U/mL) in a 37° C. incubator at 5% C02 for 7 days with medium supplementation as needed. At the end of the culture, cells were collected and analyzed by flow cytometry. […]

| Molecule | GFP positive cells (HIV NL43-GFP [1]; NY025 donor) | GFP positive cells (HIV NL43-GFP [1]; NY026 donor) | percentage of GFP positive cells ([2]; day 5) | percentage of GFP positive cells ([2]; day 7) | percentage of GFP positive cells ([2]; day 9) | percent of GFP positive cells (HIV NL43-GFP [3]; FIG. 8A bottom row) | percent of GFP positive cells (HIV NL43-GFP [3]; FIG. 8B bottom row) | increase in fluorescence intensity of IgG relative to DMSO treated cells ([4]; Gag PepMix vs DMSO) | cells positive for IgG Fc ([4]; stimulation with Gag PepMix on day 12) | cells positive for IgG Fc ([4]; treated with DMSO (no peptide)) | cells HIV positive ([5]; primary CD4 T cells, MOI of 5) | decrease in HIV infection ([5]; vs control treated cells) |
| --- | --- | --- | --- | --- | --- | --- | --- | --- | --- | --- | --- | --- |
| CC(C)(C)NC(=O)[C@@H]1C[C@@H]2CCCC[C@@H]2CN1C[C@@H](O)[C@H](Cc1ccccc1)NC(=O)[C@H](CC(N)=O)NC(=O)c1ccc2ccccc2n1 [Saquinavir, saquinavir] | 0.025% | 2.43E-3% | 0.19% | 0.22% | 0.24% | 0.017% | 0.026% | – | – | – | – | – |
| B1 | 1.79% | 0.30% | – | – | – | – | – | approximately 10 fold | 1.58% | 0.13% | – | – |
| B2 | – | – | – | – | – | – | – | – | – | – | 0.86% | 75.6% |
